How the values were obtained:
Assay type in all cases: toxicity, cell-based
[1] = system: HEK-293T; assay: Incucyte cell viability with HEK293T; details: human, 10 µM, compound concentration 10 uM
[2] = system: Fibroblast; assay: Incucyte cell viability with human fibroblast; details: 10 µM, compound concentration 10 uM
[3] = system: U2OS; assay: Incucyte cell viability with U2OS; details: human, 10 µM, compound concentration 10 uM
Also: unitless GR value; below 1 slowed growth and below 0 cell loss.

Compound	Growth Rate ([1]; 6 h, replicate number 1)	Growth Rate ([1]; 12 h, replicate number 1)	Growth Rate ([1]; 18 h, replicate number 1)	Growth Rate ([1]; 18 h, replicate number 2)	Growth Rate ([1]; 24 h, replicate number 2)	Growth Rate ([2]; 0 h, replicate number 1)	Growth Rate ([2]; 6 h, replicate number 2)	Growth Rate ([2]; 12 h, replicate number 2)	Growth Rate ([2]; 18 h, replicate number 1)	Growth Rate ([2]; 18 h, replicate number 2)	Growth Rate ([2]; 24 h, replicate number 1)	Growth Rate ([2]; 24 h, replicate number 2)	Growth Rate ([3]; 0 h, replicate number 1)	Growth Rate ([3]; 0 h, replicate number 2)	Growth Rate ([3]; 12 h, replicate number 1)	Growth Rate ([3]; 12 h, replicate number 2)	Growth Rate ([3]; 18 h, replicate number 2)	Growth Rate ([3]; 24 h, replicate number 2)	Growth Rate ([1]; 24 h, replicate number 1)	Growth Rate ([2]; 12 h, replicate number 1)	further results
O=C(Nc1cc(C(F)(F)F)cc(C(F)(F)F)c1)c1cc(Cl)ccc1O [IMD-0354]	0.18	0.81	0.76	0.17	0.36	-0.62	-1	-0.61	-0.63	-0.45	0.42	-0.33	-0.14	-1	0.7	0.03	0.18	0.26			Growth Rate ([1]; 6 h, replicate number 2): -0.86; Growth Rate ([1]; 12 h, replicate number 2): -0.2; Growth Rate ([2]; 0 h, replicate number 2): -0.02; Growth Rate ([3]; 6 h, replicate number 1): 0.76; Growth Rate ([3]; 6 h, replicate number 2): -0.23; Growth Rate ([3]; 18 h, replicate number 1): 0.69; Growth Rate ([3]; 24 h, replicate number 1): 0.71
Nc1ncnc2c1c(I)cn2[C@@H]1O[C@H](CO)[C@@H](O)[C@H]1O [IODOTUBERCIDIN]	-0.1	-0.22	-0.21	-0.24	-0.16		0.95	0.25	0.57	0.43	0.53		-0.27		0.15	-0.14	-0.04	-0.18	-0.1	0.39	Growth Rate ([1]; 0 h, replicate number 1): -0.62; Growth Rate ([1]; 6 h, replicate number 2): -0.01; Growth Rate ([1]; 12 h, replicate number 2): -0.29; Growth Rate ([2]; 0 h, replicate number 2): 0.24; Growth Rate ([2]; 6 h, replicate number 1): 0.18; Growth Rate ([3]; 6 h, replicate number 1): -0.39; Growth Rate ([3]; 6 h, replicate number 2): 0.34; Growth Rate ([3]; 18 h, replicate number 1): -0.13; Growth Rate ([3]; 24 h, replicate number 1): -0.26
CN[C@@H](C)C/C=C/c1cncc(OC(C)C)c1 [ISPRONICLINE]	0.31	0.02	0.32		0.96	-0.27	0.53	0.98	0.22	0.72	0.97	0.87	-0.66	0.2	0.82				0.28	-0.29	Growth Rate ([1]; 0 h, replicate number 1): 0.9; Growth Rate ([1]; 0 h, replicate number 2): 0.86; Growth Rate ([2]; 0 h, replicate number 2): -0.46; Growth Rate ([3]; 6 h, replicate number 1): 0.65; Growth Rate ([3]; 18 h, replicate number 1): 0.83; Growth Rate ([3]; 24 h, replicate number 1): 0.83
COC(=O)C1=C(C)NC(C)=C(C(=O)OC(C)C)C1c1cccc2nonc12 (configuration not stated) [ISRADIPINE]									-0.41		0.29		0.46	0.25	1	0.87	0.89	0.9		-1	Growth Rate ([1]; 0 h, replicate number 1): 0.8; Growth Rate ([1]; 0 h, replicate number 2): 0.32; Growth Rate ([2]; 6 h, replicate number 1): -0.03; Growth Rate ([3]; 6 h, replicate number 2): 0.83
CC(C)(C)c1cc(C(C)(C)C)c(NC(=O)c2c[nH]c3ccccc3c2=O)cc1O [IVACAFTOR]	0.19	0.71	0.65	0.75	0.72		0.55		0.28	0.65		0.91		0.5		0.7	0.92	0.89	0.92		Growth Rate ([1]; 0 h, replicate number 2): 0.3; Growth Rate ([1]; 6 h, replicate number 2): 0.98; Growth Rate ([1]; 12 h, replicate number 2): 0.69; Growth Rate ([2]; 0 h, replicate number 2): -0.84; Growth Rate ([3]; 24 h, replicate number 1): 0.98
COCCc1ccc(-c2c(C)nc3c(N4CCOCC4)ccnn23)cn1 [JNJ-42396302]			0.91			0.07	0.78	0.81	0.88	0.84	0.86	0.91	-0.6	0.07	0.98	0.93	0.99		0.86	0.86	Growth Rate ([1]; 0 h, replicate number 2): 0.44; Growth Rate ([3]; 6 h, replicate number 2): 0.56
COc1nc2ccc([C@@](O)(c3ccccc3)C3CCN(C(C)=O)CC3)cc2c(Cl)c1Cc1ccc(-n2cccn2)cc1 [JNJ-54119936]		0.65	0.37			-1				0.98			-1	0.93	0.93	0.72	0.7	0.64	0.25		Growth Rate ([1]; 0 h, replicate number 1): -0.96; Growth Rate ([1]; 0 h, replicate number 2): -1; Growth Rate ([3]; 6 h, replicate number 2): 0.45; Growth Rate ([3]; 18 h, replicate number 1): 0.84; Growth Rate ([3]; 24 h, replicate number 1): 0.94
CC(=O)Nc1ncc(CN2CCC[C@H](Cc3cc(C)nc(C)c3)C2)s1 [JNJ-65355394]	0.82	0.83				-1	0.74	0.75		0.94			-1			0.62	0.92	0.78	0.91	0.9	Growth Rate ([1]; 0 h, replicate number 2): -0.2; Growth Rate ([3]; 6 h, replicate number 1): -0.86; Growth Rate ([3]; 18 h, replicate number 1): 0.96
CC(=O)Nc1nc(CN2CCC[C@H](Cc3cc(C)nc(C)c3)C2)cs1 [JNJ-73924149]	0.52	0.71	0.81	0.95	0.95		0.73	0.74	0.87	0.72		0.79				0.87		0.91	0.82	0.89	Growth Rate ([1]; 6 h, replicate number 2): 0.53; Growth Rate ([2]; 6 h, replicate number 1): 0.58; Growth Rate ([3]; 18 h, replicate number 1): 0.89
NCCCNCCCCNCCC(=O)NCCCCCNC(=O)[C@H](CC(N)=O)NC(=O)Cc1ccc(O)cc1O [JORO SPIDER TOXIN 3]						0.16			0.85		0.49			-0.97							Growth Rate ([1]; 0 h, replicate number 1): -0.96; Growth Rate ([1]; 0 h, replicate number 2): -1; Growth Rate ([2]; 0 h, replicate number 2): -1
N#CN1CC[C@@H](C(=O)Nc2nc3c(s2)CN(C(=O)CN=[N+]=[N-])CC3)C1 [JYQ88]	0.69	0.77	1	0.77	0.85	-1	0.78	0.49		0.75	1	0.77	-1		0.95				0.96	0.78	Growth Rate ([1]; 0 h, replicate number 1): 0.97; Growth Rate ([1]; 6 h, replicate number 2): 0.71; Growth Rate ([1]; 12 h, replicate number 2): 0.7
C=C(C)[C@H]1CN[C@H](C(=O)O)[C@H]1CC(=O)O [KAINIC ACID]	0.6	0.52	0.62	0.99		-0.12	0.16	0.83	0.63	0.79	0.76	0.8		-0.65			0.9		0.8		Growth Rate ([2]; 0 h, replicate number 2): 0.92; Growth Rate ([2]; 6 h, replicate number 1): 0.61; Growth Rate ([3]; 6 h, replicate number 1): 0.42; Growth Rate ([3]; 24 h, replicate number 1): 0.98
CC(=O)N1CCN(c2ccc(OCC3COC(Cn4ccnc4)(c4ccc(Cl)cc4Cl)O3)cc2)CC1 (configuration not stated) [KETOCONAZOLE]	-0.34	0.05	0.34	0.32	0.38					0.96		0.89		-0.98		0.63	0.99		0.6	-1	Growth Rate ([1]; 6 h, replicate number 2): -0.16; Growth Rate ([1]; 12 h, replicate number 2): 0.03; Growth Rate ([2]; 0 h, replicate number 2): -0.79; Growth Rate ([2]; 6 h, replicate number 1): 0.47; Growth Rate ([3]; 6 h, replicate number 1): 0.7; Growth Rate ([3]; 6 h, replicate number 2): 0.94
Cc1c[nH]c(-c2cnc(NCCNc3ccc(C#N)cn3)nc2-c2ccc(Cl)cc2Cl)n1 [LADUVIGLUSIB]	0.35	0.49	0.58	0.7	0.75		0.81	-0.19	-0.4	-0.3	-0.33	-0.28	0.54		0.48	0.87	0.93	0.99	0.71	-0.47	Growth Rate ([1]; 0 h, replicate number 1): 0.82; Growth Rate ([1]; 0 h, replicate number 2): 0.92; Growth Rate ([1]; 6 h, replicate number 2): 0.14; Growth Rate ([1]; 12 h, replicate number 2): 0.43; Growth Rate ([2]; 6 h, replicate number 1): 0.56; Growth Rate ([3]; 6 h, replicate number 1): 0.47; Growth Rate ([3]; 18 h, replicate number 1): 0.83; Growth Rate ([3]; 24 h, replicate number 1): 0.56

— ChEMBL document CHEMBL5303304, “EUbOPEN Chemogenomics Library - IncuCyte” (2023)
